Results as given in ChEMBL document CHEMBL6092179, “Discovery of CLKs inhibitors for the treatment of non-small cell lung cancer” (Eur J Med Chem, 2024).
Activity calls are given as the source filed them. No cut-off for these calls is given here.

Key:
NCI-H1299 [1] = experiment: cells; conditions: Homo sapiens, NCI-H1299, 48 h
Description: Antiproliferative activity against human NCI-H1299 cells assessed as inhibition of cell growth incubated for 48 hrs by MTT assay

[2] = molecular target: Dual specificity protein kinase CLK3 (Homo sapiens, UniProt P49761); experiment: Inhibition of CLK3 (unknown origin) by ADP-Glo assay
[3] = molecular target: T1, Dual specificity protein kinase CLK2 (Homo sapiens, UniProt P49760); experiment: Inhibition of CLK2 (unknown origin) by ADP-Glo assay
Target sequence in this assay (P49760 whole entry): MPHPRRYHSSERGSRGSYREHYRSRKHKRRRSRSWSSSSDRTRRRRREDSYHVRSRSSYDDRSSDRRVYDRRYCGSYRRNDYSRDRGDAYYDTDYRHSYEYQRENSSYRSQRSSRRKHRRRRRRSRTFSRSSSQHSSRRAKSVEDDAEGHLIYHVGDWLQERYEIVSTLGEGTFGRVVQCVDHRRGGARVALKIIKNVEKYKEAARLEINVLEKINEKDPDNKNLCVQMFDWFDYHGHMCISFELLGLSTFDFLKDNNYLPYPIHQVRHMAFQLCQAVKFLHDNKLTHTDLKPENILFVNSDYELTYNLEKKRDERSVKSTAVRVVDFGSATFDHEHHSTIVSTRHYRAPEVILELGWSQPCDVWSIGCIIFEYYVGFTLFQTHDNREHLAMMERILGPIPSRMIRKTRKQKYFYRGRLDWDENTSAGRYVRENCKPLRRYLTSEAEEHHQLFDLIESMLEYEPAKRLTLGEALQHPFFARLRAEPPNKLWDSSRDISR

NCI-H1299 [4] = experiment: Inhibition of colony formation in human NCI-H1299 cells at 1 uM incubated for 7 days by crystal violet staining based analysis; format: functional, cell-based; conditions: time 7.0 day
[5] = molecular target: T1, Dual specificity protein kinase CLK2; conditions: dose 20.0 nM
Target sequence in this assay (P49760 whole entry, looked up): as the sequence (P49760 whole entry) above
Description: Inhibition of CLK2 (unknown origin) at 20 nM by ADP-Glo assay relative to control

[6] = test system: Osimertinib-resistant NCI-H1975 cell; experiment: cells; conditions: Homo sapiens, 48 h
Description: Antiproliferative activity against human Osimertinib-resistant NCI-H1975 cell assessed as inhibition of cell growth incubated for 48 hrs by MTT assay

NCI-H1975 = experiment: cells; conditions: Homo sapiens, NCI-H1975, 48 h
Description: Antiproliferative activity against human NCI-H1975 cells assessed as inhibition of cell growth incubated for 48 hrs by MTT assay

cells = conditions: Homo sapiens, Osimertinib-resistant HCC827AR cell, 48 h
Description: Antiproliferative activity against human Osimertinib-resistant HCC827AR cell assessed as inhibition of cell growth incubated for 48 hrs by MTT assay

HCC827 = experiment: cells; conditions: Homo sapiens, HCC827, 48 h
Description: Antiproliferative activity against human HCC827 cells assessed as inhibition of cell growth incubated for 48 hrs by MTT assay

A549 = experiment: cells; conditions: Homo sapiens, A549, 48 h
Description: Antiproliferative activity against human A549 cells assessed as inhibition of cell growth incubated for 48 hrs by MTT assay

Chain of Dual specificity protein kinase CLK3 (P49761 whole entry): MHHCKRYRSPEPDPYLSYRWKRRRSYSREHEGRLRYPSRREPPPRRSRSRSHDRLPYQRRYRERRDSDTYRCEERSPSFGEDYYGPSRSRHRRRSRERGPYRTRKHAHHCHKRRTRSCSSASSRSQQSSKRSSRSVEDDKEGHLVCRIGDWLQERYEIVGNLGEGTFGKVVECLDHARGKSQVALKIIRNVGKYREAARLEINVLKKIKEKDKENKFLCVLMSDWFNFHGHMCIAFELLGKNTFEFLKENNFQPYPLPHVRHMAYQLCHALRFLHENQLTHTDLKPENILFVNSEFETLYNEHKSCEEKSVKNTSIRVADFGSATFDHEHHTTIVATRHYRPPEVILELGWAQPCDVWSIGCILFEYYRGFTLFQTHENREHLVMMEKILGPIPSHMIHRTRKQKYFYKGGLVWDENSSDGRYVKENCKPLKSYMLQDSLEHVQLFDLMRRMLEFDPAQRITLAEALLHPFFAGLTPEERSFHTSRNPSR

| IC50 (NCI-H1299 [1]) | SMILES | also measured |
| --- | --- | --- |
| 260 nM | FC1(F)CCN(Cc2cncc(-c3ccc4[nH]nc(-c5nc(-c6cccnc6)c[nH]5)c4c3)c2)C1 | – |
| 700 nM | CC(C)C[C@H](N)COc1cncc(-c2ccc3[nH]nc(-c4nc(-c5cccnc5)c[nH]4)c3c2)c1 | – |
| 1160 nM | CC(C)C[C@H](N)COc1cncc(-c2ccc3[nH]nc(-c4nc(-c5cccc(C(F)(F)F)c5)c[nH]4)c3c2)c1 | – |
| 480 nM | CC(C)C[C@H](N)COc1cncc(-c2ccc3[nH]nc(-c4nc(-c5ccco5)c[nH]4)c3c2)c1 | – |
| 820 nM | CC(C)CC(=O)Nc1cncc(-c2ccc3[nH]nc(-c4nc(-c5cccnc5)c[nH]4)c3c2)c1 | – |
| 1150 nM | CC(C)C[C@H](N)COc1cncc(-c2ccc3[nH]nc(-c4nc(-c5ccsc5)c[nH]4)c3c2)c1 | – |
| 6580 nM | FC1(F)CCN(Cc2cncc(-c3ccc4[nH]nc(-c5nc(-c6ccccc6)c(-c6ccccc6)[nH]5)c4c3)c2)C1 | – |
| 1620 nM | CCc1[nH]c(-c2n[nH]c3ccc(-c4cncc(NC(=O)CC(C)C)c4)cc23)nc1C | – |
| 2380 nM | CC(C)C[C@H](N)COc1cncc(-c2ccc3[nH]nc(-c4nc(-c5ccccc5)c(-c5ccccc5)[nH]4)c3c2)c1 | – |
| 1270 nM | FC1(F)CCN(Cc2cncc(-c3ccc4[nH]nc(-c5nc(-c6ccccc6)c[nH]5)c4c3)c2)C1 | – |
| 3070 nM | CC(C)CC(=O)Nc1cncc(-c2ccc3[nH]nc(-c4nc(-c5cccc(C(F)(F)F)c5)c[nH]4)c3c2)c1 | – |
| 720 nM | FC1(F)CCN(Cc2cncc(-c3ccc4[nH]nc(-c5nc(-c6ccco6)c[nH]5)c4c3)c2)C1 | – |
| 2660 nM | FC1(F)CCN(Cc2cncc(-c3ccc4[nH]nc(-c5nc(-c6cccc(C(F)(F)F)c6)c[nH]5)c4c3)c2)C1 | – |
| 1420 nM | CC(C)CC(=O)Nc1cncc(-c2ccc3[nH]nc(-c4nc(-c5ccco5)c[nH]4)c3c2)c1 | – |
| 1380 nM | FC1(F)CCN(Cc2cncc(-c3ccc4[nH]nc(-c5nc(-c6ccsc6)c[nH]5)c4c3)c2)C1 | – |
| 450 nM | Cc1nc(-c2n[nH]c3ccc(-c4cncc(OC[C@@H](N)CC(C)C)c4)cc23)[nH]c1-c1ccccc1 | – |
| 1530 nM | CC(C)CC(=O)Nc1cncc(-c2ccc3[nH]nc(-c4nc(-c5ccco5)c(-c5ccco5)[nH]4)c3c2)c1 | – |
| 1380 nM | Cc1nc(-c2n[nH]c3ccc(-c4cncc(NC(=O)CC(C)C)c4)cc23)[nH]c1-c1ccccc1 | – |
| 1620 nM | Cc1nc(-c2n[nH]c3ccc(-c4cncc(CN5CCC(F)(F)C5)c4)cc23)[nH]c1-c1ccccc1 | – |
| 2510 nM | Cc1[nH]nc2ccc(-c3cncc(OC[C@@H](N)CC(C)C)c3)cc12 | IC50 [2]: > 100 nM; IC50 [3]: 4.1 nM; inhibition (NCI-H1299 [4]): inactive; inhibition [5]: 98.5%; IC50 [6]: 1920 nM; IC50 (NCI-H1975): 1720 nM; IC50 (cells): 3670 nM; IC50 (HCC827): 3950 nM; IC50 (A549): 3950 nM |
| 910 nM | CC(C)CC(=O)Nc1cncc(-c2ccc3[nH]nc(-c4nc(-c5ccsc5)c[nH]4)c3c2)c1 | – |
| 1680 nM | CC(C)C[C@H](N)COc1cncc(-c2ccc3[nH]nc(-c4nc(-c5ccco5)c(-c5ccco5)[nH]4)c3c2)c1 | – |
